Test results reported in patent US5882881A, “Inhibition of cyst formation by cytoskeletal specific drugs” (priority 1998, dated 1999).
Entries after “also recorded” stand apart in the source; their conditions may differ. Read-outs that look alike come from different tables or passages of the source.

How the values were obtained:
Murine CPK Cells [1] = assay: In vitro cyst formation and cyst size in suspension culture of murine CPK cells; type: cell-based, mouse; settings: day 21, 24 h, final concentration per Table II (cytosine arabinoside 20 μg/ml, α-amanitin 100 ng/ml, cycloheximide 49 μg/ml, ouabain 1 mM, amiloride 1 mM, brefeldin-A 10 μg/ml, griseofulvin 350 μM, colchicine 10 μM, vinblastine 1 μM, nocodazole 30 μM, taxol 25 μM, cytochalasins 10 μM)
human ADPKD cells = assay: In vitro cyst formation in human ADPKD cells; type: cell-based
From the text: I have substituted human ADPKD cells for the murine CPK cells of Example 1 and produced similar results. Other cyst-forming cells are believed to also form suitable results with only minor deviations from the conditions set forth in Example 1.
Cell suspensions were separated from debris by sedimentation at unit gravity and decantation. After washing once with DMEM/F12 medium, cells were suspended in DMEM/F12 supplemented with 1.2 gm/l sodium bicarbonate, 1× insulin, transferrin and selenium (Sigma # 11184), 1% lipids supplement (Sigma # L4646) and 1× antibiotic/antimycotic (Sigma # A7292) at a density of 5×10^4 cells per ml. Two mls of the cell suspension were aliquoted into each well of a six-well plastic cell culture plates that had been precoated with 2 mls of 1% low melting point agarose in DMEM/F12 and incubated at 37° C. in a humidified atmosphere of 5% CO2 in air.
(§1) I used the in vitro cyst formation system of the present invention to analyze compounds that affect the process of cyst formation. To determine the therapeutic effectiveness of an agent, cyst-forming cells are suspended in a medium to which the agent has been added. These cells are then cultured on a solid phase without formation of a layer of cells on the surface, such as in the assay system described in Example 1. The extent to which the cells actually form cysts can be detected and compared to the extent of cyst formation expected if no agent were added. If the amount of cyst formation is lower than expected, then the agent is a good candidate for therapeutic intervention of cystic diseases.

Murine CPK Cells [2] = assay: 3H-thymidine incorporation (DNA synthesis) in CPK cell suspension culture; type: cell-based, mouse; settings: for ^3 H-dThd Incorporation: ± SD, three wells, concentrations as in Table II, control 100 ± 11, 1440 min; for ^3 H-dThd incorporation / DNA synthesis (in words): CPK cultures
Protocol: Growth studies were performed on kidney cells derived from day 10, 21 and 28 postnatal CPK mice and their normal littermates. Immediately after cells were placed in suspension or monolayer culture, 3 μCi of ^3 H-thymidine (^3 H-dThd, specific activity 45 Ci/mmol, Amersham, Ill.) was placed in each well of the culture plate. DNA synthesis was assessed by incorporation of ^3 H-dThd over the 24 hours of culture, and trichloroacetic acid-insoluble. radioactivity was expressed as cpm/μg protein. Protein was assayed with the BCA reagent as described by the manufacturer (Pierce, Rockford, Ill.). At 24 hours of culture, an aliquot (0.2 ml) of the suspension was removed and the number of cysts counted using an inverted microscope. The number of cysts was expressed as a ratio factored for the total number of cells in the suspension at 24 hours of culture. Cyst diameter was measured at 100× using an eyepiece micrometer.
(§2) The effects of various metabolic inhibitors on cyst formation were studied in cultures derived from day 21 postnatal CPK mice. […] Taxol (25 μM), a microtubule specific inhibitor, was from Calbiochem (La Jolla, Calif.). All other chemicals were obtained from Sigma Chemical Co. Cytosine arabinoside was added at the final concentration of 20 μg/ml to inhibit DNA synthesis; α-amanitin at 100 ng/ml to inhibit RNA synthesis; cycloheximide at 40 μg/ml to inhibit protein synthesis; amiloride at 1 mM to inhibit the renal epithelial Na^+ -H^+ exchange; ouabain at 0.5 mM to inhibit Na^+ -K^+ -ATPase; brefeldin-A at 10 μg/ml to inhibit transport of surface proteins; griseofulvin at 350 μM to inhibit microtubule function; colchicine at 10 μM to inhibit microtubule polymerization; and cytochalasin-B and cytochalasin-D at 10 μM to depolymerize actin filaments.
(§3) In the presence of these metabolic inhibitors in vitro, cyst formation was noted to be either present or absent; if present, the diameters of 20 cysts from a 0.2 ml aliquot were measured. In the same samples, ^3 H-dThd incorporation was also measured as described above. […] After each wash, cell clusters were collected by centrifuging at 200×g for 1 minute and the supernatant discarded. Washed cell clusters were resuspended in the original volume of growth medium without inhibitors, placed in agarose coated wells and incubated at 37° C. in a moisture saturated incubator in 5% CO2 and air.
(§4) In this table, the mean cyst size is reported as ±SD with a measurement of twenty cysts. The ^3 H-dThd incorporation is reported as ±SD using measurements of three wells. The * indicates […] versus control. […] The entries listed as "NA" in the table indicate data that is not available.

Murine CPK Cells [3] = assay: In vitro cyst formation and cyst size in suspension culture of murine CPK cells; type: cell-based, mouse; settings: for Cyst Size: mean ± SD of twenty cysts, concentrations as in Table II, control 71 ± 22; for cyst formation (in words): 24 h suspension culture, ouabain 0.5 mM, also 1 mM, b155 taxol 25 μM, colchicine 10 μM, vinblastine 1 μM, cytochalasins 10 μM, model species not given
Protocol: At 10, 21 and 28 days after birth, mice having congenital polycystic kidney disease (CPK) and their phenotypically normal littermates were sacrificed by cervical dislocation. Kidneys were harvested aseptically and washed with DMEM/F12 (Sigma Chemical Co., St. Louis, Mo.) in a 1:1 mix. Each decapsulated kidney was chopped into cubes (1 mm) and incubated in 5 ml of collagenase solution composed of 1 mg/ml collagenase type IV (Worthington Biochemical Corporation, Freehold, N.J.), 1 mg/ml egg white trypsin inhibitor (Worthington) in 1:1 DMEM/F12.
The top 12 mls, which contained both single cells and aggregates of up to 10 cells, as assessed by inverted phase-ontrast microscopy, were placed in 2 ml aliquots in the wells of plastic culture plates (Corning, N.Y.) precoated with 1% agarose in DMEM:F12 (2 ml in each well of a 6-well plate; 1 ml in each well of a 24-well plate). Cell samples were digested with further incubation for 10 minutes in 0.05% trypsin and 0.53 mM EDTA (Gibco, BRL Gaithesburg, Md.) at 37° C. All cultures were plated at a final density of 1-3×10^4 cell, per well. For growth studies of monolayer cells, identical preparations were grown on the plastic surface of the culture plates. Both the monolayers and the cell suspensions were incubated at 37° C. in a moisture saturated incubator in 5% CO2 and air.
as §1, §2, §3, §4

homozygous cpk mice = assay: Survival of cpk mice on weekly intraperitoneal treatment (Example 8, FIG. 2); type: in vivo, mouse
From the text: Untreated and methotrexate (MTX) treated polycystic cpk mice all died before 30 days of age. Most polycystic cpk mice treated with weekly taxol survive more than 60 days. The dotted line starting at day 120 indicates the number and age of apparently healthy taxol treated polycystic mice that were sacrificed for histology studies. Pairs of mice were sacrificed at 120 days, 182 days and 210 days of age.
In order to determine whether taxol prevents cyst formation by inhibiting cell division, another drug known to have anti-mitotic activity, methotrexate, was tested for its ability to treat homozygous cpk mice. Six cpk mice were injected intraperitoneally with 15 μl of methotrexate solution (1.1 mg/ml in water) 10-12 days after birth and once every week thereafter. The methotrexate-injected mice survived until between 18 and 27 days after birth, with only one mouse living longer than 28 days. […] Therefore, the anti-mitotic activity of taxol cannot explain its ability to treat CPK mice having a polycystic-type kidney disease. Rather, the results from in vitro tests indicate that agents which interfere with the function of the cytoskeleton, or which inhibit the delivery of membrane proteins are useful in treating cystic diseases such as Polycystic Kidney Disease.
Eleven homozygous cpk mice, raised and identified as in Example 6 were treated with 15 μl of 10 mg/ml taxol in DMSO through intraperitoneal injection beginning 11-14 days after birth. Following the first treatment, the mice were administered with the same treatment once every week thereafter. As controls, 6 cpk mice were treated with 15 μl intraperitoneal injections of DMSO beginning 10-12 days after birth and then once every week thereafter.

[4] = human ADPKD cells, cytosine arabinoside 20 μg/ml, α-amanitin 100 ng/ml, cycloheximide 40 μg/ml, amiloride 1 mM, ouabain 0.5 mM, taxol 25 μM, colchicine 10 μM, vinblastine 1 μM, cytochalasins 10 μM

Compound | Cyst Formation (+/-) (Murine CPK Cells [1]) | cyst formation (in words) (human ADPKD cells; [4]) | ^3 H-dThd Incorporation (Murine CPK Cells [2]) | Cyst Size (Murine CPK Cells [3]) | cyst formation (in words) (Murine CPK Cells [3]; murine CPK cells) | other results
N=C(N)NC(=O)c1nc(Cl)c(N)nc1N [Amiloride] | - | completely block cyst formation | 72 ± 25 % control | 0 μm |  | cyst formation (in words) (human ADPKD cells; human ADPKD cells, cytosine arabinoside 20 μg/ml, α-amanitin 100 ng/ml, cycloheximide 40 μg/ml, amiloride 1 mM, ouabain 0.5 mM, taxol 25 μM, colchicine 10 μM, vinblastine 1 μM, cytochalasins 10 μM, listed as amiloride): cyst formation can be blocked; time to lumen appearance after removing the inhibitor (human ADPKD cells; human model): twenty-four; reversibility of inhibition of cyst formation (human ADPKD cells; human model, inhibitor removed): reversible
C[C@H]1CCC/C=C/[C@@H]2C[C@H](O)C[C@H]2[C@H](O)/C=C/C(=O)O1 [Brefeldin-A] | - |  |  | 0 μm | completely inhibited cyst formation | 
COc1cc2c(c(OC)c1OC)-c1ccc(OC)c(=O)cc1[C@@H](NC(C)=O)CC2 [Colchicine] |  |  | 97 ± 12 % control |  |  | 
C[C@@H]1C[C@@H]([C@H](O)CC2CC(=O)NC(=O)C2)C(=O)[C@@H](C)C1 [Cycloheximide] |  |  | 88 ± 20 % control | 68 ± 17 μm |  | cyst formation (in words) (human ADPKD cells): Neither cytosine arabinoside (20 μg/ml), α-amanitin (100 ng/ml) nor cycloheximide (40 μg/ml) inhibited cyst formation; Cyst Formation (+/-) (Murine CPK Cells [3]): +
C=C1C(C)C2C(Cc3ccccc3)NC(=O)C23OC(=O)/C=C/C(O)CCCC(C)C/C=C/C3C1O (stereo not shown) [Cytochalasin-B] | - | effectively inhibited cyst formation in both models | 96 ± 5 % control | 0 μm | effectively inhibited cyst formation in both models | 
C=C1C(C)C2C(Cc3ccccc3)NC(=O)C23C(OC(C)=O)/C=C/C(C)(O)C(=O)C(C)C/C=C/C3C1O (stereo not shown) [Cytochalasin-D] | - | effectively inhibited cyst formation in both models | 97 ± 2 % control | 0 μm | effectively inhibited cyst formation in both models | 
Nc1ccn([C@@H]2O[C@H](CO)[C@@H](O)[C@@H]2O)c(=O)n1 [Cytosine arabinoside, cytosine arabinoside] | + | Neither cytosine arabinoside (20 μg/ml), α-amanitin (100 ng/ml) nor cycloheximide (40 μg/ml) inhibited cyst formation; also recorded: no effect on in vitro cyst formation is observed | 2 ± 2 % control | 70 ± 21 μm | cyst formation was not affected; also recorded: cyst formation was not impaired after 24 hours of culture | ^3 H-dThd incorporation / DNA synthesis (in words) (Murine CPK Cells [2]): profound decrease in ^3 H-dThd incorporation; also recorded: effectively abolished ^3 H-dThd incorporation; ^3 H-dThd Incorporation (Murine CPK Cells [2]; listed as cytosine arabinoside): 2±2 % control
CN(Cc1cnc2nc(N)nc(N)c2n1)c1ccc(C(=O)N[C@@H](CCC(=O)O)C(=O)O)cc1 [Methotrexate] |  |  |  |  |  | survival, age (homozygous cpk mice; weekly i.p. treatment, DMSO mice survived 24-28 days, FIG. 2: all methotrexate, most taxol mice, b191: remaining six taxol mice > 120, two died < 30): < 30 days; survival (in words) (homozygous cpk mice; weekly i.p., versus untreated or DMSO): did not appear to survive substantially longer than untreated controls
COC(=O)Nc1nc2ccc(C(=O)c3cccs3)cc2[nH]1 [Nocodazole] | - | reversibly inhibited | 87 ± 16 % control | 0 μm | reversibly inhibited | 
CC[C@]1(O)C[C@@H]2CN(CCc3c([nH]c4ccccc34)[C@@](C(=O)OC)(c3cc4c(cc3OC)N(C)[C@H]3[C@@](O)(C(=O)OC)[C@H](OC(C)=O)[C@]5(CC)C=CCN6CC[C@]43[C@@H]65)C2)C1 [Vinblastine] | - | reversibly inhibited in vitro cyst formation in both models | 93 ± 9 % control | 0 μm | reversibly inhibited in vitro cyst formation in both models | 
α-amanitin |  | Neither cytosine arabinoside (20 μg/ml), α-amanitin (100 ng/ml) nor cycloheximide (40 μg/ml) inhibited cyst formation | 71 ± 10 % control | 65 ± 27 μm |  | ^3 H-dThd incorporation / DNA synthesis (in words) (Murine CPK Cells [2]): small, but significant, decrease in ^3 H-dThd incorporation; Cyst Formation (+/-) (Murine CPK Cells [3]; murine CPK cells, day 21, 24 h, final concentration per Table II (cytosine arabinoside 20 μg/ml, α-amanitin 100 ng/ml, cycloheximide 49 μg/ml, ouabain 1 mM, amiloride 1 mM, brefeldin-A 10 μg/ml, griseofulvin 350 μM, colchicine 10 μM, vinblastine 1 μM, nocodazole 30 μM, taxol 25 μM, cytochalasins 10 μM)): +
